# Data taken from PubChem BioAssay AID1963981 (Molecular Pharmacology Branch, DTP, NCI, 2024).
# Test system: 354836-022-R-J1-PDC multicell spheroid viability
# Assay: Anticancer human tumor 354836-022-R-J1-PDC patient-derived head and neck squamous cell carcinoma cell line growth inhibition [PI3K]
# Details: for IC50: curve of first compound; for viability, T/C: stronger effect = lower value
# Procedure, shortened: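 Tumor cells were combined with HUVEC and MSCs into spheroids, then dosed with PI3K-inhibitor combinations over half-log ranges capped near clinical Cmax or 10 microM.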
# [1] = second compound 0.00316 µM, first compound 0.0316 µM
# [2] = second compound 0.00316 µM, first compound 0.1 µM
# [3] = second compound 0.00316 µM, first compound 0.316 µM
# [4] = second compound 0.00316 µM, first compound 1 µM
# [5] = second compound 0.00316 µM, first compound 3.16 µM
# [6] = second compound 0.00316 µM, first compound 10 µM
# [7] = second compound 0.01 µM, first compound 0.0316 µM
# [8] = second compound 0.01 µM, first compound 0.1 µM
# [9] = second compound 0.01 µM, first compound 0.316 µM
# [10] = second compound 0.01 µM, first compound 1 µM
# [11] = second compound 0.01 µM, first compound 3.16 µM
# [12] = second compound 0.01 µM, first compound 10 µM
# [13] = second compound 0.0316 µM, first compound 0.0316 µM
# [14] = second compound 0.0316 µM, first compound 0.1 µM
# [15] = second compound 0.0316 µM, first compound 0.316 µM
# [16] = second compound 0.0316 µM, first compound 1 µM
# [17] = second compound 0.0316 µM, first compound 3.16 µM
# [18] = second compound 0.0316 µM, first compound 10 µM
# [19] = second compound 0.1 µM, first compound 0.0316 µM
# [20] = second compound 0.1 µM, first compound 0.1 µM
# [21] = second compound 0.1 µM, first compound 0.316 µM
# [22] = second compound 0.1 µM, first compound 1 µM
# [23] = second compound 0.1 µM, first compound 3.16 µM
# [24] = second compound 0.1 µM, first compound 10 µM
# [25] = second compound 0.316 µM, first compound 0.0316 µM
# [26] = second compound 0.316 µM, first compound 0.1 µM
# [27] = second compound 0.316 µM, first compound 0.316 µM
# [28] = second compound 0.316 µM, first compound 1 µM
# [29] = second compound 0.316 µM, first compound 3.16 µM
# [30] = second compound 0.316 µM, first compound 10 µM
# [31] = second compound 1 µM, first compound 0.0316 µM
# [32] = second compound 1 µM, first compound 0.1 µM
# [33] = second compound 1 µM, first compound 0.316 µM
# [34] = second compound 1 µM, first compound 1 µM
# [35] = second compound 1 µM, first compound 3.16 µM
# [36] = second compound 1 µM, first compound 10 µM
# 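Note: spheroids exposed to agents for seven days before the viability read.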
smiles,measurement,setting,value
C=CC(=O)N1CCN(c2nc(=O)n(-c3c(C)ccnc3C(C)C)c3nc(-c4c(O)cccc4F)c(F)cc23)C(C)C1 (stereo not drawn) + CC(Nc1ccc2c(c1)OCCn1cc(N3C(=O)OCC3C(F)F)nc1-2)C(N)=O,IC50,second compound 0.00316 µM,> 10000 nM
same,IC50,second compound 0.01 µM,> 10000 nM
same,IC50,second compound 0.0316 µM,> 10000 nM
same,IC50,second compound 0.1 µM,> 10000 nM
same,IC50,second compound 0.316 µM,> 10000 nM
same,IC50,second compound 1 µM,> 10000 nM
same,"viability, T/C",[1],100%
same,"viability, T/C",[2],81.7%
same,"viability, T/C",[3],98.7%
same,"viability, T/C",[4],94.5%
same,"viability, T/C",[5],106%
same,"viability, T/C",[6],113%
same,"viability, T/C",[7],101%
same,"viability, T/C",[8],91.8%
same,"viability, T/C",[9],93.1%
same,"viability, T/C",[10],95.3%
same,"viability, T/C",[11],103%
same,"viability, T/C",[12],91%
same,"viability, T/C",[13],95.7%
same,"viability, T/C",[14],112%
same,"viability, T/C",[15],86.9%
same,"viability, T/C",[16],111%
same,"viability, T/C",[17],115%
same,"viability, T/C",[18],92.2%
same,"viability, T/C",[19],77.9%
same,"viability, T/C",[20],94.3%
same,"viability, T/C",[21],95.2%
same,"viability, T/C",[22],124%
same,"viability, T/C",[23],88.5%
same,"viability, T/C",[24],89.7%
same,"viability, T/C",[25],68.2%
same,"viability, T/C",[26],75.9%
same,"viability, T/C",[27],81.5%
same,"viability, T/C",[28],68.1%
same,"viability, T/C",[29],87.7%
same,"viability, T/C",[30],70.6%
same,"viability, T/C",[31],63.9%
same,"viability, T/C",[32],63.2%
same,"viability, T/C",[33],65.1%
same,"viability, T/C",[34],74%
same,"viability, T/C",[35],68.3%
same,"viability, T/C",[36],55.6%
CCN1CCN(Cc2ccc(Nc3ncc(F)c(-c4cc(F)c5nc(C)n(C(C)C)c5c4)n3)nc2)CC1 + CC(Nc1ccc2c(c1)OCCn1cc(N3C(=O)OCC3C(F)F)nc1-2)C(N)=O,IC50,second compound 0.00316 µM,> 1000 nM
same,IC50,second compound 0.01 µM,> 1000 nM
same,IC50,second compound 0.0316 µM,> 1000 nM
same,IC50,second compound 0.1 µM,713 nM
same,IC50,second compound 0.316 µM,425 nM
same,IC50,second compound 1 µM,162 nM
same,"viability, T/C","second compound 0.00316 µM, first compound 0.00316 µM",99.9%
same,"viability, T/C","second compound 0.00316 µM, first compound 0.01 µM",99.6%
same,"viability, T/C",[1],93.1%
same,"viability, T/C",[2],105%
same,"viability, T/C",[3],104%
same,"viability, T/C",[4],67.5%
same,"viability, T/C","second compound 0.01 µM, first compound 0.00316 µM",100%
same,"viability, T/C","second compound 0.01 µM, first compound 0.01 µM",97.8%
same,"viability, T/C",[7],116%
same,"viability, T/C",[8],85%
same,"viability, T/C",[9],89.2%
same,"viability, T/C",[10],69.6%
same,"viability, T/C","second compound 0.0316 µM, first compound 0.00316 µM",95.8%
same,"viability, T/C","second compound 0.0316 µM, first compound 0.01 µM",80.7%
same,"viability, T/C",[13],84.7%
same,"viability, T/C",[14],101%
same,"viability, T/C",[15],85.7%
same,"viability, T/C",[16],57.5%
same,"viability, T/C","second compound 0.1 µM, first compound 0.00316 µM",89.2%
same,"viability, T/C","second compound 0.1 µM, first compound 0.01 µM",82.9%
same,"viability, T/C",[19],75.6%
same,"viability, T/C",[20],94.1%
same,"viability, T/C",[21],75.9%
same,"viability, T/C",[22],39.2%
same,"viability, T/C","second compound 0.316 µM, first compound 0.00316 µM",65%
same,"viability, T/C","second compound 0.316 µM, first compound 0.01 µM",79.3%
same,"viability, T/C",[25],67.5%
same,"viability, T/C",[26],62.1%
same,"viability, T/C",[27],61.5%
same,"viability, T/C",[28],22.9%
same,"viability, T/C","second compound 1 µM, first compound 0.00316 µM",64%
same,"viability, T/C","second compound 1 µM, first compound 0.01 µM",54.1%
same,"viability, T/C",[31],67.6%
same,"viability, T/C",[32],47.5%
same,"viability, T/C",[33],46.4%
same,"viability, T/C",[34],14.2%
Cn1ncc(Cl)c1-c1cc(C(=O)NC(CN)Cc2cccc(F)c2)sc1Cl (stereo not drawn) + CC(Nc1ccc2c(c1)OCCn1cc(N3C(=O)OCC3C(F)F)nc1-2)C(N)=O,IC50,second compound 0.00316 µM,85.2 nM
same,IC50,second compound 0.01 µM,92.4 nM
same,IC50,second compound 0.0316 µM,105 nM
same,IC50,second compound 0.1 µM,129 nM
same,IC50,second compound 0.316 µM,92.9 nM
same,IC50,second compound 1 µM,37.2 nM
same,"viability, T/C",[1],64.3%
same,"viability, T/C",[2],48.1%
same,"viability, T/C",[3],33.3%
same,"viability, T/C",[4],20.1%
same,"viability, T/C",[5],19.9%
same,"viability, T/C",[6],5.31%
same,"viability, T/C",[7],75.2%
same,"viability, T/C",[8],47.5%
same,"viability, T/C",[9],30.2%
same,"viability, T/C",[10],18.9%
same,"viability, T/C",[11],18.3%
same,"viability, T/C",[12],5.41%
same,"viability, T/C",[13],66.6%
same,"viability, T/C",[14],56.4%
same,"viability, T/C",[15],27.3%
same,"viability, T/C",[16],23.9%
same,"viability, T/C",[17],16.9%
same,"viability, T/C",[18],3.21%
same,"viability, T/C",[19],83.1%
same,"viability, T/C",[20],56%
same,"viability, T/C",[21],29.9%
same,"viability, T/C",[22],24.2%
same,"viability, T/C",[23],15.9%
same,"viability, T/C",[24],4.25%
same,"viability, T/C",[25],71%
same,"viability, T/C",[26],48.8%
same,"viability, T/C",[27],30.7%
same,"viability, T/C",[28],20.5%
same,"viability, T/C",[29],12.9%
same,"viability, T/C",[30],5.46%
same,"viability, T/C",[31],50.6%
same,"viability, T/C",[32],45.2%
same,"viability, T/C",[33],32.2%
same,"viability, T/C",[34],25%
same,"viability, T/C",[35],13%
same,"viability, T/C",[36],4.09%
Cn1nccc1Nc1nccc(-c2ccn(C(CO)c3ccc(Cl)c(F)c3)c(=O)c2)n1 (stereo not drawn) + CC(Nc1ccc2c(c1)OCCn1cc(N3C(=O)OCC3C(F)F)nc1-2)C(N)=O,IC50,second compound 0.00316 µM,> 10000 nM
same,IC50,second compound 0.01 µM,> 10000 nM
same,IC50,second compound 0.0316 µM,> 10000 nM
same,IC50,second compound 0.1 µM,> 10000 nM
same,IC50,second compound 0.316 µM,> 10000 nM
same,IC50,second compound 1 µM,> 10000 nM
same,"viability, T/C",[1],91.2%
same,"viability, T/C",[2],86.8%
same,"viability, T/C",[3],112%
same,"viability, T/C",[4],92.6%
same,"viability, T/C",[5],93.5%
same,"viability, T/C",[6],88.1%
same,"viability, T/C",[7],105%
same,"viability, T/C",[8],92.5%
same,"viability, T/C",[9],101%
same,"viability, T/C",[10],95.1%
same,"viability, T/C",[11],101%
same,"viability, T/C",[12],88.5%
same,"viability, T/C",[13],103%
same,"viability, T/C",[14],92.4%
same,"viability, T/C",[15],88.7%
same,"viability, T/C",[16],88.6%
same,"viability, T/C",[17],127%
same,"viability, T/C",[18],98.2%
same,"viability, T/C",[19],74.2%
same,"viability, T/C",[20],100%
same,"viability, T/C",[21],94.6%
same,"viability, T/C",[22],88.7%
same,"viability, T/C",[23],100%
same,"viability, T/C",[24],98.4%
same,"viability, T/C",[25],59.9%
same,"viability, T/C",[26],73.3%
same,"viability, T/C",[27],75.2%
same,"viability, T/C",[28],72%
same,"viability, T/C",[29],71.5%
same,"viability, T/C",[30],71.8%
same,"viability, T/C",[31],58.8%
same,"viability, T/C",[32],50.1%
same,"viability, T/C",[33],55.4%
same,"viability, T/C",[34],62.4%
same,"viability, T/C",[35],61.4%
same,"viability, T/C",[36],41.4%
